# Source: PMC10004088, “Myrtinols A–F: New Anti-Inflammatory Peltogynoid Flavonoid Derivatives from the Leaves of Australian Indigenous Plant Backhousia myrtifolia” (Molecules, 2023)
# Columns and labels:
# Format in all cases: cell-based
# [1] = system: RAW 264.7 macrophages; assay: Cell viability / cytotoxicity by the Alamar Blue assay; conditions: Mus musculus, RAW264.7, 24 h, LPS + IFN-γ activated RAW 264.7 macrophages, N = 6, mean ± SD
# Procedure: (§1) All compounds were assessed for their anti-inflammatory activity by evaluating the inhibition of NO production and TNF-α in LPS plus interferon (IFN)-γ activated RAW 264.7 macrophages. All compounds were also evaluated for their cytotoxicity using the Alamar blue assay (Table 3).
# (§2) Cells were grown in 75 cm^2 flasks on Dulbecco’s Modified Eagle Medium (DMEM) containing 10% fetal bovine serum (FBS) that was supplemented with penicillin (100 U/mL), streptomycin (100 μg/mL) and L-glutamine (2 mM). The cell line was maintained in 5% CO2 at 37 °C, with media being replaced every 3–4 days. Once cells had grown to confluence in the culture flask, they were harvested using a rubber policeman, as opposed to using trypsin, which can remove membrane-bound receptors.
# (§3) RAW 264.7 cells (1 × 10^6 cells/mL) were seeded in 96 well plates (Corning® Costar®, Sigma, Sydney, Australia) overnight until confluency. When the cells were confluent, each compound was serially diluted from a starting concentration of 100 μg mL^−1 to construct a dose response curve (i.e., 100, 50, 25, 12.5, 6.25, and 3.13 μg mL^−1) and co-incubated with cells for 1 hr prior to the addition of 1 μg mL^−1 LPS and 10 U mL^−1 (1 unit = 0.1 ng/mL) IFN-γ. After activation, the cells were incubated for another 24 hrs at 37 °C. The supernatant was then collected for NO, and TNF-α assays. The cells were subjected to cell viability measurement using the Alamar Blue assay. Non-activated cells (exposed to media only) were used as negative control and activated cells were positive control.
# After various treatments and the stimulation by LPS and IFN-γ overnight, 100 µL of Alamar Blue solution [10% Alamar Blue (resazurin) in DMEM media] was added to cells and incubated at 37 °C for 2 hrs. The fluorescence intensity was measured with excitation at 530 nm and emission at 590 nm using a microplate reader. The results were expressed as a percentage of the intensity to that of control cells (non-activated cells).
# (§4) Data analysis was carried using GraphPad Prism 9.3.1. Calculations were performed using MS-Excel version 16.61.1. IC50 values were obtained by using the sigmoidal dose–response function in GraphPad Prism. The results were expressed as mean ± standard deviation (SD).
# [2] = system: TNF-α production in LPS + IFN-γ activated RAW 264.7 macrophages; assay: Inhibition of TNF-α production (ELISA) in LPS + IFN-γ activated RAW 264.7 macrophages; conditions: Mus musculus, RAW264.7, 24 hrs, N = 6, mean ± SD
# Procedure: as §1, §2, §3
# The stored supernatants were analyzed for TNF-α synthesis using a commercial ELISA kit (Peprotech, Brisbane, Australia) according to the manufacturer’s instructions. The absorbance was measured at 410 nm. The concentrations of TNF-α in the experimental samples were extrapolated from a standard curve.
# as §4
# [3] = system: nitric oxide (NO) production in LPS + IFN-γ activated RAW 264.7 macrophages; assay: Inhibition of NO production (Griess assay) in LPS + IFN-γ activated RAW 264.7 macrophages; conditions: for IC50: Mus musculus, RAW264.7, 24 hrs, N = 6, mean ± SD; for Anti-inflammatory activity (in words): verbal judgement of Table 3 data
# Procedure: as §1, §2, §3
# Nitric oxide was determined by the Griess reagent as described in previous studies. Griess reagent was freshly made up of equal volumes of 1% sulfanilamide in 5% phosphoric acid and 0.1% N-1-naphthylethylenediamine dihydrochloride in Milli-Q water. From each well, 50 µL of supernatant was transferred to a fresh 96-well plate and mixed with 50 µL of Griess reagent. The production of nitrite as an indicator of NO was measured at 540 nm in a POLARstar Omega microplate reader (BMG Labtech, Mornington, Australia).
# as §4
IC50 [2] [µg/mL],IC50 [3] [µg/mL],Structure (SMILES),CC50 [1] [µg/mL],Anti-inflammatory activity (in words) [3]
24.5 ± 0.28,11.5 ± 0.14,"COc1c(C)c(O)cc2c1C[C@@H]1OCc3c(cc4c(c3O)OCO4)[C@H]1O2 [Compound 1, Myrtinol A]",18.8 ± 0.39,
52.4 ± 7.47,16.2 ± 0.77,"COc1cc2c(c(O)c1OC)CO[C@H]1Cc3c(cc(O)c(C)c3OC)O[C@H]21 [Compound 2, Myrtinol B]",37.2 ± 2.09,
> 100,> 100,"COc1cc2c(c(O)c1C)[C@@H](O)[C@@H]1OCc3c(cc(OC)c(OC)c3O)[C@H]1O2 [Compound 3, Myrtinol C]",> 100,inactive
91.3 ± 7.14,29.3 ± 10.9,"COc1cc2c(c(O)c1C)C[C@@H]1OCc3c(cc(OC)c(OC)c3O)[C@H]1O2 [Compound 4, Myrtinol D]",71.5 ± 14.7,
17.2 ± 0.22,8.51 ± 0.47,"COc1cc2c(c(OC)c1C)C[C@@H]1OCc3c(cc4c(c3O)OCO4)[C@H]1O2 [Compound 5, Myrtinol E]",15.5 ± 0.42,
30.6 ± 5.01,12.6 ± 0.26,"COc1cc2c(c(OC)c1C)C[C@@H]1OCc3c(cc(OC)c(OC)c3O)[C@H]1O2 [Compound 6, Myrtinol F]",19.8 ± 0.86,
> 100,44.1 ± 13.4,"COc1ccc([C@@H]2Oc3c(O)cc(CCCO)cc3[C@H]2CO)cc1OC [Compound 7, 4-O-methylcedrusin]",> 100,did not show good anti-inflammatory activity
> 100,> 100,"COc1cc([C@@H]2Oc3c(OC)cc(CCCO)cc3[C@H]2CO)ccc1O [Compound 8, 7-O-methylcedrusin]",> 100,did not show good anti-inflammatory activity
46.8 ± 5.87,8.3 ± 0.96,"COc1cc2oc(-c3ccc(O)cc3)cc(=O)c2c(O)c1C [Compound 9, 8-demethylsideroxylin]",20.4,
4.19 ± 2.6,4.64 ± 1.5,"COc1cc(/C=C/C(=O)CC(=O)/C=C/c2ccc(O)c(OC)c2)ccc1O [curcumin, reference compound]",10.9 ± 1.3,
